Laboratory results from patent US20200123127A1, “REMOVAL OF SENESCENCE-ASSOCIATED MACROPHAGES” (EVERON BIOSCIENCES, INC., priority 2016, published 2020).
Entries after “also recorded” stand apart in the source; their conditions may differ.

Key:
β-galactosidase in SAMs = assay: β-galactosidase activity (4-MUG hydrolysis) in alginate bead-elicited macrophages (SAMs) ex vivo; assay type: cell-based, mouse; conditions: for effect on β-gal activity (polarizing agents): 72 hours, IFN-γ 10 ng/mL, Poly(I:C) 10 μg/mL, IFN-α 100 U/mL, IL-4 20 ng/mL, IL-13 10 ng/ml; for β-galactosidase production by SAM cells (MUG assay): concentrations of 2.5 to 10 μM
Procedure: (§1) FIG. 7. Immunomodulatory regulation of p16(Ink4a) and SAβG in macrophages. Peritoneal lavage cells elicited by alginate-encapsulated SCs from p16^Ink4a/Luc mice were treated ex vivo with immunomodulatory agents for 72 hours. A) p16 promoter-dependent luciferase activity (black bars) and […] activity (via 4-MUG hydrolysis) (gray bars) were measured following treatment with M1- and M2-polarizing stimuli: LPS at 1 ng/mL, IFN-γ at 10 ng/mL, LPS/IFN-γ co-treatment, Poly(I:C) at 10 μg/mL, IFN-α at 100 U/mL, IL-4 at 20 ng/mL, IL-13 at 10 ng/ml, and IL-4/IL-13 co-treatment. Results are shown as the mean±standard deviation for at least 3 independent experiments, with statistical significance between treated compared to non-treated samples depicted. B) Dose-dependent response of JAK1/2 inhibitor Ruxolitinib on luciferase activity in elicited macrophages in the presence (gray bars) or absence (black bars) of IL-4 (10 ng/mL) stimulation. Enzyme activities are expressed as the percent activity relative to non-treated (NT) controls per cell. Statistical significance between IL-4 stimulated and non-stimulated cells at each concentration of ruxolitinib is shown.
FIG. 13. Effect of TA-4812 on β-gal expression and cell viability. Asenins TA-04812-1, was assayed for its effects on SAM viability, proliferation, and β-gal expression. SAM viability was determined using the resazurin cell viability assay (Res). Cell proliferation was assessed using the CyQuant assay (CyQUANT® Direct Cell proliferation Assay, ThermoFisher Scientific, Waltham, Mass., Catalog # C35011, performed according to manufacturer's instructions) (CyQ). β-gal production was assessed using the MUG assay, a quantitative assay to determine the level of β-gal expression using 4-methylumbelliferylgalactopyranoside (MUG) as substrate.
A fluorogenic substrate for β-galactosidase, 4-MUG (4-Methylumbelliferyl β-D-Galactopyranoside; Sigma-Aldrich), was used for the quantitation of enzymatic β-gal activity from cell lysates, assayed under β-gal^pH6 conditions (i.e. pH 6.0). In a 96-well white microplate, 5 μl of diluted cell lysate was combined with 45 μl of fluorogenic β-gal^pH6 reaction buffer: 1 mM 4-MUG in 100 mM citric acid/sodium phosphate buffer, pH 6.0, containing 2 mM MgCl2, 150 mM NaCl and 0.02% NP-40. Kinetics of product formation at room temperature was determined by measuring fluorescence (Ex/Em 360 nm/440 nm) of the reaction mixture at regular intervals over a 2-hour time period. Reaction endpoints were determined by addition of 150 μl of 700 mM sodium carbonate. The rate of reaction (RFU/min) for each sample was determined, and normalized per μg of protein.
To determine whether macrophage polarization regulates p16(Ink4a) and SAβG expression, peritoneal lavage from p16^Ink4a/Luc mice elicited by our alginate bead model were stimulated with M1- and M2-inducing agents and subsequently, luciferase activity (driven by endogenous p16(Ink4a) promoter) and β-galactosidase activity (assayed via 4-MUG hydrolysis) were measured (FIG. 7A). […] Consistently, LPS decreased the intensity of SAβG staining in treated macrophages. The response of macrophages to LPS was rapid, with a significant decrease in luciferase activity observed within 8 hours (˜40% decrease).
We investigated whether the mechanisms regulating the expression of these traits in macrophages were similar to those found in SCs. Using cells isolated from p16^Ink4a/Luc mice, the dose-dependent response of luciferase and β-galactosidase activities to immunomodulatory stimuli in macrophages was compared to that of proliferating and irradiation-induced senescent adipose-derived mesenchymal stromal cells. […] LPS stimulation of alginate bead model-elicited macrophages reduced luciferase activity, with maximal inhibition (˜85%) observed at concentrations ≥1 ng/mL (FIG. 10A). In addition, β-galactosidase activity was reduced by 40% at 10 ng/mL (FIG. 10B). […]

[1] = system: p16(Ink4a) expression in SAMs; assay: p16(Ink4a) promoter-dependent luciferase activity in alginate bead-elicited macrophages (SAMs) ex vivo; assay type: cell-based, mouse; conditions: for effect on luciferase activity (M1-inducing agents): IFN-γ 10 ng/mL, Poly(I:C) 10 μg/mL, IFN-α 100 U/mL, 72 hours; for Modulation of p16(Ink4a): SAMs: SAMs from NDF alginate beads, dose-response testing
Procedure: as §1
FIG. 8. Immunomodulatory regulation of p16(Ink4a) and SAβG in macrophages. Peritoneal lavage cells elicited by alginate-encapsulated SCs from p16^Ink4a/Luc mice were treated ex vivo with immunomodulatory agents for up to 72 hours. (A) mRNA expression of p16(Ink4a) and β-galactosidase (Glb1) in macrophages (relative to B2m expression) with or without LPS stimulation for 72 hours analyzed via qRT-PCR, normalized to non-treated controls. (B) Microphotograph of SAβG-stained adherence-selected macrophages with or without stimulation with LPS (1 ng/mL) for 72 hours (10× objective). (C&D) Kinetics of p16(Ink4a) promoter-dependent luciferase activity per cell with or without LPS stimulation (C) or IL-4 stimulation (D), normalized to activity from non-treated cells at time zero. Results are shown as the mean±standard deviation for at least 3 experiments. Statistical significance with respect to non-treated control at time zero is indicated. (E) Luciferase activity and (3-galactosidase activity (via 4-MUG hydrolysis) from proteose peptone-elicited lavage cells following stimulation with IL-4 (20 ng/mL) for 72 hours, normalized to non-treated controls. (F) Viability following 72 hour dose-response to JAK1/2 inhibitor Ruxolitinib in the presence or absence of IL-4 (10 ng/mL) stimulation, measured by CyQuant Direct DNA-based viability assay. Viability normalized to respective controls lacking Ruxolitinib. (G&H) Dose-response of STAT6 inhibitor AS1517499 against luciferase activity (G) and viability via CyQuant Direct assay (H) following 72 hour treatment in the presence and absence of IL-4 (10 ng/mL). Results normalized to respective controls (with or without IL-4) lacking STAT6 inhibitor. Statistical significance is calculated with respect to the difference between IL-4 stimulated and non-stimulated cells at each concentration of STAT6 inhibitor. (I) Relative luciferase activity per cell following repolarization with M1- and M2-inducing agents. Macrophages were left non-treated (NT) or treated with either LPS (1 ng/ml) or IL-4 (20 ng/ml) for 72 hours (days 1-3), as indicated. For each treatment set, samples were collected at 72 hours (no further treatment; days 4-6=x). Alternatively, cells were washed and placed in fresh medium (−), medium containing LPS (1 ng/mL) and IFN-γ (10 ng/mL), or medium containing IL-4 (20 ng/mL) and IL-13 (10 ng/mL) and incubated for an additional 72 hours prior to sample collection (as indicated for days 4-6). Luciferase activity is expressed as the percent activity per cell relative to non-treated (NT) controls after the first 72 hours.
Luciferase activity of cell lysates was accessed using Bright-Glo™ Luciferase Assay System (Promega; Madison, Wis.) according to manufacturer's instructions with minor modifications. […]

Molecule | effect on β-gal activity (polarizing agents) (β-galactosidase in SAMs) | effect on luciferase activity (M1-inducing agents) [1] | Modulation of p16(Ink4a): SAMs [1] | further results
Poly(I:C) | without affecting β-gal activity | decreased luciferase activity | decrease | β-galactosidase activity, dose-response (β-galactosidase in SAMs; Poly(I:C), 72 hr): no effect; luciferase activity, dose-response ([1]; 72 hr, selective to macrophages): dose-dependent decrease
O=C(NCCCc1cn[nH]c1)c1ccc(-c2ccncc2)c(C#Cc2ccc(F)cc2)c1 [OT-82] |  |  | decrease | β-galactosidase expression/activity in SAMs (β-galactosidase in SAMs; OT-82, 500 nM): no effect; also recorded: little effect; expression of p16 (luciferase) in SAMs ([1]; OT-82, 500 nM): selectively decrease; also recorded: significantly downregulates
IL-13: M2-polarizing cytokine | without modulating β-gal activity |  | increase | 
COc1ccc(C2CC(=NO)c3c(SCc4ccccc4)sc(C(=O)NCc4cccc(F)c4)c3C2)cc1 (stereo not shown) [Example A1.6, 3-(Benzylthio)-N-(3-fluorobenzyl)-4-(hydroxyimino)-6-(4-methoxyphenyl)-4,5,6,7-tetrahydrobenzo[c]thiophene-1-carboxamide] |  |  | decrease | β-galactosidase production by SAM cells (MUG assay) (β-galactosidase in SAMs; listed as TA-4812): reduce β-galactosidase production; β-galactosidase production by SAM cells (MUG assay) (β-galactosidase in SAMs; listed as TA-04812-1): reducing β-gal expression
IL-4: M2-polarizing cytokine | without modulating β-gal activity |  | increase | 
IFN-α | without affecting β-gal activity | decreased luciferase activity |  | 
IFN-γ: type II interferon, M1-inducing agent (protein, UniProt P01579 24-161, looked up) Interferon gamma: QDPYVKEAENLKKYFNAGHSDVADNGTLFLGILKNWKEESDRKIMQSQIVSFYFKLFKNFKDDQSIQKSVETIKEDMNVKFFNSNKKKRDDFEKLTNYSVTDLNVQRKAIHELIQVMAELSPAAKTGKRKRSQMLFRG | without affecting β-gal activity | decreased luciferase activity |  | 
